The source of these data is patent US4216206A (priority 1977, dated 1980).

For orientation: LD50 means the dose expected to kill half of the subjects tested. Read a high LD50 as a less toxic substance.

This series deals with mouse. Description: acute toxicity in the mouse over 7 days. The series is classed as in vivo. The settings on record: i.v. As to the method:
The acute toxicities of the antibiotics were determined in the mouse over 7 days.

Thiostrepton came in with an LD50 of under 100 mg/kg.
